We go through five substances from USRE48461E1, “Modulation of androgen receptor expression” (Ionis Pharmaceuticals, Inc., priority 2012, dated 2021).

e = 2'-O-(2-methoxyethyl) (MOE); d = 2'-deoxy (DNA)

The conditions of data set [1]: cynomolgus monkey, in vivo; for Oligonucleotide concentration, Kidney / Oligonucleotide concentration, Liver: sc, 40 mg/kg.
Description: (§5) Prior to the study, the monkeys were kept in quarantine for a 30-day period, during which the animals were observed daily for general health. The monkeys were 2-4 years old and weighed between 2 and 4 kg. Thirteen groups of four randomly assigned male cynomolgus monkeys each were injected subcutaneously with ISIS oligonucleotide or PBS. PBS solution or ISIS oligonucleotides, at a dose of 40 mg/kg, were administered with a loading regimen consisting of four doses on the first week of the study (days 1, 3, 5, and 7), followed by a maintenance regimen consisting of once weekly administration starting on Day 14 (weeks 2 to 6). Subcutaneous injections were performed in clock-wise rotations at 4 sites on the back; one site per dose. The injection sites were delineated by tattoo, while sedated using ketamine, and were separated by a minimum of 3 cm.
The concentrations of the full-length oligonucleotide in the kidney and the liver of select treatment groups were measured. The method used is a modification of previously published methods (Leeds et al., 1996; Geary et al., 1999) which consist of a phenol-chloroform (liquid-liquid) extraction followed by a solid phase extraction.
The conditions of data set [2]: cynomolgus monkey, in vivo, sc, 40 mg/kg.
Description: as §5
To evaluate any effect of ISIS oligonucleotides in cynomolgus monkeys on hematologic parameters, blood samples of approximately 0.5 mL of blood was collected day 44 from each of the available study animals in tubes containing K2-EDTA. Samples were analyzed for red blood cell (RBC) count, white blood cells (WBC) count, platelet count, hemoglobin content and hematocrit, using an ADVIA2120i hematology analyzer (SIEMENS, USA).
The conditions of data set [3]: cynomolgus monkey, in vivo, sc, 40 mg/kg. This is another data set of the same source.
Description: as §5
To evaluate the effect of ISIS oligonucleotides on the overall health of the animals, body and organ weights were measured.
For data set [4] the following is noted: cynomolgus monkey, in vivo, sc, 40 mg/kg. The source holds these as a separate data set.
Description: as §5
To evaluate the effect of ISIS oligonucleotides on kidney function, the monkeys were fasted overnight. Approximately, 1.5 mL of blood samples were collected from all the study groups on day 44. Blood was collected in tubes without anticoagulant for serum separation. The tubes were kept at room temperature for a minimum of 90 min and then centrifuged at 3,000 rpm for 10 min. Levels of BUN and creatinine were measured using a Toshiba 120FR NEO chemistry analyzer (Toshiba Co., Japan).
The conditions of data set [5]: cynomolgus monkey, in vivo, sc, 40 mg/kg. The source holds these as a separate data set.
In a further data set the test system is testosterone. Nature of the data set: Serum testosterone levels in cynomolgus monkeys (ELISA). Format: in vivo. The note with it: cynomolgus monkey, 40 mg/kg subcutaneously. How it is done: Serum testosterone protein levels were measured in the plasma with an ELISA kit (Enzo Life Sciences), following the manufacturer's instructions.
In general terms: An ELISA detects its analyte on a solid surface through an enzyme-linked reagent.

For data set [6] the following is noted: cynomolgus monkey, in vivo, sc, 40 mg/kg. The source holds these as a separate data set.
Description: as §5
Kidney function was also assessed by urinalysis. Fresh urine from all animals was collected on day 44 using a clean cage pan on wet ice. Food was removed overnight the day before fresh urine collection was done but water was supplied. The total protein and creatinine levels were measured using a Toshiba 120FR NEO automated chemistry analyzer (Toshiba Co., Japan) and the protein to creatinine ratio was calculated.
For data set [7] the following is noted: cynomolgus monkey, in vivo, sc, 40 mg/kg. The source holds these as a separate data set.
Description: The monkeys were 2-4 years old and weighed between 2 and 4 kg. Thirteen groups of four randomly assigned male cynomolgus monkeys each were injected subcutaneously with ISIS oligonucleotide or PBS. PBS solution or ISIS oligonucleotides, at a dose of 40 mg/kg, were administered with a loading regimen consisting of four doses on the first week of the study (days 1, 3, 5, and 7), followed by a maintenance regimen consisting of once weekly administration starting on Day 14 (weeks 2 to 6). Subcutaneous injections were performed in clock-wise rotations at 4 sites on the back; one site per dose. The injection sites were delineated by tattoo, while sedated using ketamine, and were separated by a minimum of 3 cm.
To evaluate any inflammatory effect of ISIS oligonucleotides in cynomolgus monkeys, the monkeys were fasted overnight. Approximately, 1.5 mL of blood samples were collected from all the study groups on day 44. Blood was collected in tubes without anticoagulant for serum separation. The tubes were kept at room temperature for a minimum of 90 min and then centrifuged at 3,000 rpm for 10 min. C-reactive protein (CRP), which is synthesized in the liver and which serves as a marker of inflammation, was measured on day 43 using a Toshiba 120FR NEO chemistry analyzer (Toshiba Co., Japan). Complement C3 was also measured similarly, and the data is presented as a percentage of baseline values.
A further data set relates to CWR22-RV1 cells. Nature of the data set: CWR22-RV1 cell proliferation (CellTiter 96). Format: cell-based, human. The note with it: RNAiMax, 6 days. The protocol:
(§1) CWR22-RV1 cells were plated and transfected using RNAiMax reagent (Life Technologies) with ISIS oligonucleotides at 1.7 nM, 5.0 nM, 16.7 nM, or 50 nM concentrations. ISIS 347526 was included as a negative control. After a treatment period of 6 days, the target reduction and proliferative capacity of the cancer cells was measured.
(§2) Antisense inhibition of AR full-length mRNA was measured with the RTS3559 primer probe set. The results are presented in Table 63 as percent inhibition relative to non-treated cells. The reduction in V7 splice variant of the AR mRNA was also measured by RT-PCR using SYBR Green staining (Hu, R. et al., Cancer Res. 2009. 69: 16-22). The results are presented in Table 64, as percent reduction, relative to non-treated cells. Cell proliferation was measured with CellTiter 96® AQueous One Solution Cell Proliferation kit (Promega), following the manufacturer's instructions. Results are presented in Table 65 as percent inhibition of proliferation, relative to non-treated cells.

The next data set concerns AR full-length mRNA. Kind of data set: AR full-length mRNA in CWR22-RV1 cells (RNAiMax, RTS3559). Format: cell-based, human. To be noted: 6 days. How it is done:
as §1, §2

The subject of data set [8] is V7 splice variant of the AR mRNA. Kind of data set: AR V7 splice variant mRNA in CWR22-RV1 cells (RT-PCR SYBR Green). Type of data set: cell-based, human. To be noted: RNAiMax, 6 days. How it is done: as §1, §2
A further data set deals with full-length AR. Nature of the data set: Western blot of full-length AR in MDV3100-resistant C4-2B cells. Format: cell-based, human. The note with it: C4-2B MR cells (Example 16). How it is done:
(§3) ISIS 549372, ISIS 549434, and ISIS 554221 at 1 μM concentration of antisense oligonucleotide were each added to the culture media at 1 μM concentration for free uptake by the cells. After a treatment period of 2 days, cells were harvested in RIPA buffer containing protease inhibitors. The presence of bands for full-length AR, as well as the variant form, AR-V7, was detected by western blot using AR antibody (N-20, Santa Cruz).
(§4) Western analysis of full-length AR, as well as the AR-V7 variant, was also conducted in a manner similar to the assay described above.
Background: Immunoblotting shows a protein as a band on a membrane.

In the next data set the test system is AR-V7. Nature of the data set: Western blot of AR-V7 in MDV3100-resistant C4-2B cells. The note with it: C4-2B MR cells (Example 16). Format: cell-based, human. How it is done:
as §3, §4

For the substance “ISIS 584269: antisense compound targeted to human AR (CCTTATGGATGCTGCT; 3-10-3 (S)-cEt gapmer, further chemistry not given here)”, in data set [1], the K/L ratio came to 4.0; the “Oligonucleotide concentration, Kidney” value stood at 2823 μg/g tissue; the “Oligonucleotide concentration, Liver” value was found to be 698 μg/g tissue. For the same substance, in data set [2], the HCT came out at 41%, the Hemoglobin was determined as 12.4 g/dL, the Platelets turned out to be 522000 µL and the RBC turned out to be 5.2e+06 µL. This substance showed a WBC in [2] of 9800 µL. In data set [3], the “Body Wt” value turned out to be 2.5 kg, the Heart weight is 8.7 g, the Kidney weight stood at 13 g and the Liver weight turned out to be 60 g. In data set [3], the “Mesenteric lymph nodes weight” value turned out to be 3.6 g and the Spleen weight was determined as 4.7 g. Moreover, in data set [4], the “Plasma BUN” value was 21.8 mg/dL and the “Plasma Creatinine” value came to 0.89 mg/dL. For the same substance, in data set [5], the ALT was 75 IU/L, the AST is reported as 81 IU/L and the Albumin was 4.0 g/dL. For the same substance, the Serum testosterone level in the data set on testosterone is given as 14.1 ng/mL. Moreover, in data set [6], the Urine protein/creatinine ratio is 0.00. In addition, in data set [7], the “C3 (% of baseline)” value is recorded as 102 % of baseline and the CRP is 4.9 mg/dL.

Turning to “ISIS 584468: antisense compound targeted to human AR (CATTGTACTATGCCAG; 3-10-3 (S)-cEt gapmer, further chemistry not given here)”, in [1], the K/L ratio is listed as 5.2; the “Oligonucleotide concentration, Kidney” value was determined as 2441 μg/g tissue; the “Oligonucleotide concentration, Liver” value is recorded as 474 μg/g tissue. For the same substance, in [2], the HCT came to 45%, the Hemoglobin came out at 13.5 g/dL, the Platelets is 408000 µL and the RBC turned out to be 5.9e+06 µL. The WBC in data set [2] stood at 11100 µL. Moreover, in [3], the “Body Wt” value turned out to be 2.5 kg, the Heart weight worked out at 8.3 g, the Kidney weight was found to be 13 g and the Liver weight is 60 g. In addition, in data set [3], the “Mesenteric lymph nodes weight” value was 3.8 g and the Spleen weight amounted to 4.1 g. Moreover, in [4], the “Plasma BUN” value is listed as 22.2 mg/dL and the “Plasma Creatinine” value stood at 0.78 mg/dL. In [5], this substance displayed an ALT of 46 IU/L, an AST of 52 IU/L and an Albumin of 4.0 g/dL. The substance also yielded a Serum testosterone level in the data set on testosterone of 13.6 ng/mL. Further, in [6], the Urine protein/creatinine ratio came out at 0.00. Moreover, in data set [7], the “C3 (% of baseline)” value is on record as 111 % of baseline and the CRP is reported as 1.3 mg/dL.

As for “TCTTATGTTTCCGAACCGTT (sugars from the 5' end e5 d10 e5, backbone and methylation of C not given here) [ISIS 347526, reference compound]”, the “Percent inhibition of cell proliferation” value with CWR22-RV1 cells (dose 5.0 nM), in the data set with CWR22-RV1 cells (dose 16.7 nM) and with CWR22-RV1 cells (dose 50.0 nM) was 0% throughout. Further, the “Percent inhibition of AR full-length mRNA” value with AR full-length mRNA (dose 5.0 nM) is reported as 3%; in the data set on AR full-length mRNA (dose 16.7 nM), 4%; in the data set on AR full-length mRNA (dose 50.0 nM), 0%. The “Percent inhibition of AR splice variant, V7” value in data set [8] (dose 5.0 nM) amounted to 0%; in data set [8] (dose 16.7 nM), 0%; in data set [8] (dose 50.0 nM), 10%. The “levels of full-length AR (Western analysis)” value in the data set on full-length AR is “did not reduce protein levels”. Also, the “levels of AR-V7 (Western analysis)” value in the data set on AR-V7 is listed as “did not reduce protein levels”.

In the case of “TGATTTAATGGTTGCA [ISIS 569221] (cEt/MOE gapmer chemistry, further chemistry not given here)”, in data set [1], the “Oligonucleotide concentration, Kidney” value worked out at 1372 μg/g tissue and the “Oligonucleotide concentration, Liver” value came to 966 μg/g tissue. In data set [2], this substance registered an HCT of 45%, a Hemoglobin of 12.9 g/dL, a Platelets of 406000 µL and an RBC of 5.6e+06 µL. This substance came in with a WBC in data set [2] of 11100 µL. Moreover, in data set [3], the “Body Wt” value amounted to 2.5 kg, the Heart weight was 8.5 g, the Kidney weight was 14 g and the Liver weight is listed as 68 g. In data set [3], the “Mesenteric lymph nodes weight” value amounted to 3.5 g and the Spleen weight was 3.3 g. For the same substance, in data set [4], the “Plasma BUN” value was determined as 20.2 mg/dL and the “Plasma Creatinine” value is 0.86 mg/dL. In addition, in data set [5], the ALT stood at 48 IU/L, the AST is reported as 73 IU/L and the Albumin was determined as 4.0 g/dL. Also, in the data set on testosterone (40 mg/kg), the Serum testosterone level is reported as 8.8 ng/mL. For the same substance, in data set [7], the “C3 (% of baseline)” value was 91 % of baseline and the CRP came out at 4.9 mg/dL.

“TTGATTTAATGGTTGC [ISIS 579671] (cEt/MOE gapmer chemistry, further chemistry not given here)”: in data set [1], the K/L ratio is recorded as 3.0; the “Oligonucleotide concentration, Kidney” value worked out at 2576 μg/g tissue; the “Oligonucleotide concentration, Liver” value is on record as 871 μg/g tissue. In addition, in data set [2], the HCT came to 42%, the Hemoglobin was 12.5 g/dL, the Platelets turned out to be 438000 µL and the RBC is 5.4e+06 µL. In data set [2], this substance returned a WBC of 10000 µL. For the same substance, in data set [3], the “Body Wt” value is 2.4 kg, the Heart weight came to 8.8 g, the Kidney weight is 14 g and the Liver weight is reported as 62 g. For the same substance, in data set [3], the “Mesenteric lymph nodes weight” value came out at 2.5 g and the Spleen weight turned out to be 3.2 g. Further, in data set [4], the “Plasma BUN” value came to 22.7 mg/dL and the “Plasma Creatinine” value was 0.74 mg/dL. In [5], the ALT is on record as 56 IU/L, the AST is 53 IU/L and the Albumin is given as 4.0 g/dL. In the data set on testosterone (40 mg/kg), this substance returned a Serum testosterone level of 7.3 ng/mL. The Urine protein/creatinine ratio in [6] is 0.00. Further, in data set [7], the “C3 (% of baseline)” value is 101 % of baseline and the CRP came out at 4.5 mg/dL.
